The values that follow come from US20240000724A1, “Compositions and Methods for Treatment or Prevention of Oral Mucositis” (PATHWAYS BIOSCIENCE, LLC, priority 2015, published 2024).

This test has as its system Nrf2 (HepG2 cells). The test is described as follows: Nrf2 induction by PB201 analogs in HepG2 Nrf2/ARE promoter-luciferase reporter cells. The class given is cell-based, human. To be noted: 0-7 ug/mL, read 24 h after start of stimulation. An excerpt: In this Example, the effects of compounds that are structurally related to 1,3-diphenyl-1,3-propanedione are investigated.
(In general: In a reporter assay the amount or activity of a reporter protein is the signal.)

As for `O=C(c1ccccc1)C(Br)C(=O)c1ccccc1` [2-bromo-1,3-diphenyl-1,3-propanedione], the Nrf2 activation entry was “activated Nrf2”.

Consider `O=C(CCCC(=O)c1ccccc1)c1ccccc1` [1,3-dibenzoylpropane], for which the Nrf2 activation result was “activated Nrf2”.
